Literature values in patent publication US11813289B2, “Encapsulated antimicrobials and related methods of treatment” (ADVANTAGE SILVER DENTAL ARREST, LLC, priority 2018, dated 2023).

System: dentinal caries lesions
Conditions: lesions that had progressed into the dentin

silver diamine fluoride [SDF]
dentinal caries lesions arrested after treatment: two-thirds
